US7692002B2, “Metal complexes having vitamin B12 as a ligand” (University of Zurich, priority 2004, dated 2010)

Tested on: mouse melanoma cell line (B16F1)
Assay: Cytotoxicity tests with a mouse melanoma cell line (B16F1)
Assay type: cell-based
Conditions: B16F1 mouse melanoma cells, concentration of 100 μM

Cyanocobalamin [vitamin B12]
proliferation inhibition: no effect at all
